Reference: patent US8399403B2, “Chemical linkers and conjugates thereof” (priority 2004, dated 2013)

Experiments:
[1] = Rate of cyclization of 6-membered hydrazine linker in buffer; assay type: physicochemical; details: incubated in buffer at pH 7.4, assessed over time
Experimental: A duocarmycin analog conjugated to a dimethyl 6-membered hydrazine linker was incubated in buffer at pH 7.4 for 24 hours and the generation of cyclized product resulting from cyclization of the hydrazine linker, thereby releasing free duocarmycin analog, was assessed over time.
A duocarmycin analog conjugated to a gem-dimethyl 6-membered hydrazine linker was incubated in buffer at pH 7.4 and the generation of cyclized product resulting from cyclization of the hydrazine linker, thereby releasing free duocarmycin analog, was assessed over time.

[2] = test system: experimental animals; details: cited from earlier work
[3] = in vitro and in experimental animals; cited from earlier work

| Structure (SMILES) | generation of cyclized product resulting from cyclization of the hydrazine linker (release of free duocarmycin analog) [1] | toxicity in experimental animals [2] | antitumor and antimicrobial activity [3] |
| --- | --- | --- | --- |
| COC(=O)c1c(C)[nH]c2c(OC(=O)N(C)CC(=O)N(C)N)cc3c(c12)[C@H](CCl)CN3C(=O)c1cc2cc(OC)ccc2o1 | Minimal amounts of cyclized product were detected over 24 hours | – | – |
| COC(=O)c1c(C)[nH]c2c(OC(=O)N(C)C(C)(C)C(=O)N(C)N)cc3c(c12)[C@H](CCl)CN3C(=O)c1cc2cc(OC)ccc2o1 | proceeding to completion within a few minutes | – | – |
| COc1c(O)c2c(c3cc(C(=O)N4CCc5c4c(O)c(OC)c4[nH]c(C(=O)N6CC7CC78C6=CC(=O)c6[nH]cc(C)c68)cc54)[nH]c13)CCN2C(N)=O (stereo not shown) [CC-1065] | – | causes delayed death in experimental animals | potent antitumor and antimicrobial activity |
